Among the data in patent US12421240B2, “Hydropyrazino[1,2-d][1,4]diazepine compounds for the treatment of autoimmune disease” (Hoffmann-La Roche Inc., priority 2019, dated 2025) are IC50 values, retold here.

The test concerns the target T1, human TLR9 (Homo sapiens, UniProt Q9NR96).
T1 sequence (Q9NR96 26-1032): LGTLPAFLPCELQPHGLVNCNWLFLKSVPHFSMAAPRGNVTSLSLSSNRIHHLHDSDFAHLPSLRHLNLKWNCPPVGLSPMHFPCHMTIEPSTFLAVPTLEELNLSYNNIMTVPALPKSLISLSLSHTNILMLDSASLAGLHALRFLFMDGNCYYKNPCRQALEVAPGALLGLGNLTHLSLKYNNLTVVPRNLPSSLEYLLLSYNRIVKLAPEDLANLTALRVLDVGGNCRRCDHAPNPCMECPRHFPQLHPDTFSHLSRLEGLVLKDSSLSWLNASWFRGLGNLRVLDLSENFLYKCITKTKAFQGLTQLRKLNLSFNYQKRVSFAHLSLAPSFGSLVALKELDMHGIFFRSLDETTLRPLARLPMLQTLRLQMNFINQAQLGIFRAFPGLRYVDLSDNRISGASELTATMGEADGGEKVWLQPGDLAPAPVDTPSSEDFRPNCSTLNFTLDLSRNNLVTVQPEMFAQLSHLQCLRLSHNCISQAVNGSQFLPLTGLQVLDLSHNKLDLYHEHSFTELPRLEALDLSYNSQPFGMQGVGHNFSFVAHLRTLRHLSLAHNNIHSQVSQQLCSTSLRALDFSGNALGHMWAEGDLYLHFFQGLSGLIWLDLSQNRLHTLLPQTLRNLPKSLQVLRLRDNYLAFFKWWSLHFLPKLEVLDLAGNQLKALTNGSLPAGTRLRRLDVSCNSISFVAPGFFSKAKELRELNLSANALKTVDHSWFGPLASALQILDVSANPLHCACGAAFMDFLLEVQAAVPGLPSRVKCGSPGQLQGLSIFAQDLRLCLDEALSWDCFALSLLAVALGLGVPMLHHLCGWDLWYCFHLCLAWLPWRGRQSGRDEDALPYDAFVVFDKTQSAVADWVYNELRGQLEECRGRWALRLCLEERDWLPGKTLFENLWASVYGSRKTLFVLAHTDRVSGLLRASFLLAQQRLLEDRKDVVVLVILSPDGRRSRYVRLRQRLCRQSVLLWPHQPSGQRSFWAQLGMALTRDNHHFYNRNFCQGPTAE
Put plainly: HEK293-Blue-hTLR-9 cells assay (SEAP reporter, ODN2006 stimulation). In kind it is cell-based. The note with it: HEK293-Blue-hTLR9 cells, ODN2006 ligand, 20 hrs; read-out: HEK/hTLR9 IC50. The method, then: The following tests were carried out in order to determine the activity of the compounds of formula (I), (Ia) or (Ib) in HEK293-Blue-hTLR-7/8/9 cells assay.
HEK293-Blue-hTLR-9 Cells Assay:
A stable HEK293-Blue-hTLR-9 cell line was purchased from InvivoGen (Cat. #: hkb-htlr9, San Diego, California, USA). These cells were originally designed for studying the stimulation of human TLR9 by monitoring the activation of NF-κB. A SEAP (secreted embryonic alkaline phosphatase) reporter gene was placed under the control of the IFN-β minimal promoter fused to five NF-κB and AP-1-binding sites. The SEAP was induced by activating NF-κB and AP-1 via stimulating HEK-Blue hTLR9 cells with TLR9 ligands. Therefore the reporter expression was declined by TLR9 antagonist under the stimulation of a ligand, such as ODN2006 (Cat. #: tlrl-2006-1, Invivogen, San Diego, California, USA), for incubation of 20 hrs. The cell culture supernatant SEAP reporter activity was determined using QUANTI-Blue™ kit (Cat. #: rep-qb1, Invivogen, San Diego, California, USA) at a wavelength of 640 nm, a detection medium that turns purple or blue in the presence of alkaline phosphatase.
HEK293-Blue-hTLR9 cells were incubated at a density of 250,000˜450,000 cells/mL in a volume of 170 μL in a 96-well plate in Dulbecco's Modified Eagle's medium (DMEM) containing 4.5 g/L glucose, 50 U/mL penicillin, […], 2 mM L-glutamine, 10% (v/v) heat-inactivated fetal bovine serum with addition of 20 μL test compound in a serial dilution in the presence of final DMSO at 1% and 10 μL of 20 uM ODN2006 in above DMEM, perform incubation under 37° C. in a CO2 incubator for 20 hrs. Then 20 μL of the supernatant from each well was incubated with 180 μL Quanti-blue substrate solution at 37° C. for 2 h and the absorbance was read at 620-655 nm using a spectrophotometer. The signaling pathway that TLR9 activation leads to downstream NF-κB activation has been widely accepted, and therefore similar reporter assay was modified for evaluating TLR9 antagonist.

Regarding `C[C@@H]1CN(c2ccc(C#N)c3ncccc23)C[C@@H]2CCN(Cc3cnc(N4CCNCC4)nc3)CCN21` [Example 14, 5-[(4R,10aS)-4-methyl-8-[(2-piperazin-1-ylpyrimidin-5-yl)methyl]-1,3,4,6,7,9,10,10a-octahydropyrazino[1,2-d][1,4]diazepin-2-yl]quinoline-8-carbonitrile], the IC50 stood at 70.5 nM.

With `C[C@@H]1CN(c2ccc(C#N)c3ncccc23)C[C@@H]2CCN(Cc3ccc4c(c3)CCNC4)CCN21` [Example 11, 5-[(4R,10aS)-4-methyl-8-(1,2,3,4-tetrahydroisoquinolin-6-ylmethyl)-1,3,4,6,7,9,10,10a-octahydropyrazino[1,2-d][1,4]diazepin-2-yl]quinoline-8-carbonitrile], the IC50 was 48.7 nM.

On to `C[C@@H]1CN(c2ccc(C#N)c3ncccc23)C[C@@H]2CCN(Cc3ccc(N4CCOC[C@H](N)C4)cn3)CCN21` [Example 21, 5-[(4R,10aS)-8-[[5-[(6R)-6-amino-1,4-oxazepan-4-yl]-2-pyridyl]methyl]-4-methyl-1,3,4,6,7,9,10,10a-octahydropyrazino[1,2-d][1,4]diazepin-2-yl]quinoline-8-carbonitrile], for which the IC50 came to 105 nM.

On to `C[C@@H]1CN(c2ccc(C#N)c3ncccc23)C[C@@H]2CCN(Cc3ccc4c(c3)CNCC4)CCN21` [Example 12, 5-[(4R,10aS)-4-methyl-8-(1,2,3,4-tetrahydroisoquinolin-7-ylmethyl)-1,3,4,6,7,9,10,10a-octahydropyrazino[1,2-d][1,4]diazepin-2-yl]quinoline-8-carbonitrile], for which the IC50 came out at 43.8 nM.

Turning to `C[C@@H]1CN(c2ccc(C#N)c3ncccc23)C[C@@H]2CCN(c3cnc(N4CCNCC4)nc3)CCN21` [Example 2, 5-[(4R,10aS)-4-methyl-8-(2-piperazin-1-ylpyrimidin-5-yl)-1,3,4,6,7,9,10,10a-octahydropyrazino[1,2-d][1,4]diazepin-2-yl]quinoline-8-carbonitrile], the IC50 was 59.3 nM.

As for `CO[C@@H]1CN(c2cnc(CN3CC[C@H]4CN(c5ccc(C#N)n6nccc56)C[C@@H](C)N4CC3)c(F)c2)C[C@H]1N` [Example 26, 4-[(4R,10aS)-8-[[5-[(3R,4R)-3-amino-4-methoxy-pyrrolidin-1-yl]-3-fluoro-2-pyridyl]methyl]-4-methyl-1,3,4,6,7,9,10,10a-octahydropyrazino[1,2-d][1,4]diazepin-2-yl]pyrazolo[1,5-a]pyridine-7-carbonitrile], the IC50 came out at 87.4 nM.

As for `C[C@@H]1CN(c2ccc(C#N)c3ncccc23)C[C@@H]2CCN(c3cncc4c3CCNC4)CCN21` [Example 4, 5-[(4R,10aS)-4-methyl-8-(5,6,7,8-tetrahydro-2,7-naphthyridin-4-yl)-1,3,4,6,7,9,10,10a-octahydropyrazino[1,2-d][1,4]diazepin-2-yl]quinoline-8-carbonitrile], the IC50 was less than 31.8 nM.

On to `C[C@@H]1CN(c2ccc(C#N)c3ncccc23)C[C@@H]2CCN(Cc3cc4c(cn3)CCNC4)CCN21` [Example 9, 5-[(4R,10aS)-4-methyl-8-(5,6,7,8-tetrahydro-2,6-naphthyridin-3-ylmethyl)-1,3,4,6,7,9,10,10a-octahydropyrazino[1,2-d][1,4]diazepin-2-yl]quinoline-8-carbonitrile], for which the IC50 worked out at 35 nM.

As to `C[C@@H]1CN(c2ccc(C#N)c3ncccc23)C[C@@H]2CCN(Cc3cncc(N4CCNCC4)c3)CCN21` [Example 16, 5-[(4R,10aS)-4-methyl-8-[(5-piperazin-1-yl-3-pyridyl)methyl]-1,3,4,6,7,9,10,10a-octahydropyrazino[1,2-d][1,4]diazepin-2-yl]quinoline-8-carbonitrile], the IC50 was 35.4 nM.

`C[C@@H]1CN(c2ccc(C#N)c3ncccc23)C[C@@H]2CCN(Cc3ccc(N4CCNCC4)cn3)CCN21` [Example 19, 5-[(4R,10aS)-4-methyl-8-[(5-piperazin-1-yl-2-pyridyl)methyl]-1,3,4,6,7,9,10,10a-octahydropyrazino[1,2-d][1,4]diazepin-2-yl]quinoline-8-carbonitrile]: the IC50 worked out at 45.8 nM.
